The results in this text go back to patent publication US20220380368A1, “SPIROCYCLIC ANDROGEN RECEPTOR PROTEIN DEGRADERS” (THE REGENTS OF THE UNIVERSITY OF MICHIGAN, priority 2019, published 2022).

The structures appear in SMILES notation. Where two headings read alike, the source gives them in different places.

This assay deals with T1, AR protein (Homo sapiens, UniProt P10275).
T1 construct: endogenous in cells; host or cells: VCaP
T1 sequence (P10275 1-920): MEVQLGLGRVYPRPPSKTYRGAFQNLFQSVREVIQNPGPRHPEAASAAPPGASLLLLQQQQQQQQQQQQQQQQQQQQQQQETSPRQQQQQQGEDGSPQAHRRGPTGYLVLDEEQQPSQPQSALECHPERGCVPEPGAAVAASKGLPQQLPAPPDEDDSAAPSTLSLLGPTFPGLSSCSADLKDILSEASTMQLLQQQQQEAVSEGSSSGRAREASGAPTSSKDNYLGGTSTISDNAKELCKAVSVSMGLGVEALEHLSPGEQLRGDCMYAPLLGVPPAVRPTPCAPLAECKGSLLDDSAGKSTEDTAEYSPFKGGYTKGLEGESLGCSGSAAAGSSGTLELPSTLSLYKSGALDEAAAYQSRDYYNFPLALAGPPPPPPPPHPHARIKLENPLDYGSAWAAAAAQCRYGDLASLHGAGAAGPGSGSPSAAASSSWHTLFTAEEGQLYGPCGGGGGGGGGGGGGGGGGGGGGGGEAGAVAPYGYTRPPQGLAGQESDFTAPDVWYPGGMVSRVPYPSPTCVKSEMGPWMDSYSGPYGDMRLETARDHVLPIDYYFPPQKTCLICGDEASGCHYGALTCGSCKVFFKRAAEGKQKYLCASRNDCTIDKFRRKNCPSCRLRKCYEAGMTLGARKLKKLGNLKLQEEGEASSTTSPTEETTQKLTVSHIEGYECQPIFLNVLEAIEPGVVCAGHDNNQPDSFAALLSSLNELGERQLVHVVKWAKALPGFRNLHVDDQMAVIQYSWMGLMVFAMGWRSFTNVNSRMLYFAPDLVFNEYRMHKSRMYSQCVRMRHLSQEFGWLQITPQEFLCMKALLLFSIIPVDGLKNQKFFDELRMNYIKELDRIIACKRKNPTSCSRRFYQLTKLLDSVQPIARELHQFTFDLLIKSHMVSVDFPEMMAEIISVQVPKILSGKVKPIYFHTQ
As to the kind of experiment: Western blotting analysis of AR protein levels in VCaP cells, band quantification, DC50/DC90. The format is cell-based. On the procedure:
The appropriate cell line, e.g., prostate cancer LNCaP, Vcap, or 22RV1 cell line, was treated with Compounds of the Disclosure as indicated. The treated cells were lysed with RIPA buffer. […] GAPDH was used as a loading control.
Bands were quantified with ImageJ software. The relative numbers of each band obtained from normalization with its corresponding GAPDH level were compared with Prism 8 software. The DC50 values were produced from Prism 8, and the DC90 values were calculated with an equation=Bottom+(Top−Bottom)/(1+10^((Log EC50−X)*HillSlope) based on DC50 and Hillslope values.
(Immunoblotting shows a protein as a band on a membrane.)

[1] abbreviates: VCaP cells, Table 6; read-out: VCaP DC50.

For the compound `C[C@H]1CC2(CCN(c3ccc(C(=O)N4CCN(C5CN(c6cc7c(cc6F)C(=O)N(C6CCC(=O)NC6=O)C7=O)C5)CC4)nn3)CC2)CN1c1ccc(C#N)c(Cl)c1` (stereo partly drawn) [Cpd. No. 501, 2-chloro-4-((3S)-8-(6-(4-(1-(2-(2,6-dioxopiperidin-3-yl)-6-fluoro-1,3-dioxoisoindolin-5-yl)azetidin-3-yl)piperazine-1-carbonyl)pyridazin-3-yl)-3-methyl-2,8-diazaspiro[4.5]decan-2-yl)benzonitrile], the DC50 under setting [1] was less than 1 nM.

As for `C[C@H]1CC2(CCN(c3ccc(C(=O)N4CCN(CC5CN(c6cc7c(cc6F)C(=O)N(C6CCC(=O)NC6=O)C7=O)C5)CC4)nn3)CC2)CN1c1ccc(C#N)c(Cl)c1` (stereo partly drawn) [Cpd. No. 503, 2-chloro-4-((3S)-8-(6-(4-((1-(2-(2,6-dioxopiperidin-3-yl)-6-fluoro-1,3-dioxoisoindolin-5-yl)azetidin-3-yl)methyl)piperazine-1-carbonyl)pyridazin-3-yl)-3-methyl-2,8-diazaspiro[4.5]decan-2-yl)benzonitrile], the DC50 under setting [1] lay within 1 to 10 nM.

As for `C[C@H]1CC2(CCN(c3ccc(C(=O)N4CCN(C5CN(c6cc7c(cc6F)C(=O)N(C6CCC(=O)NC6=O)C7=O)C5)CC4)cn3)CC2)CN1c1ccc(C#N)c(Cl)c1` (stereo partly drawn) [Cpd. No. 504, 2-chloro-4-((3S)-8-(5-(4-(1-(2-(2,6-dioxopiperidin-3-yl)-6-fluoro-1,3-dioxoisoindolin-5-yl)azetidin-3-yl)piperazine-1-carbonyl)pyridin-2-yl)-3-methyl-2,8-diazaspiro[4.5]decan-2-yl)benzonitrile], the DC50 under setting [1] is less than 1 nM.

In the case of `C[C@H]1CC2(CCN(c3ccc(C(=O)N4CCN(C5CN(c6cc7c(cc6F)C(=O)N(C6CCC(=O)NC6=O)C7=O)C5)CC4)cn3)CC2)CN1c1ccc(C#N)c(Cl)c1` (stereo partly drawn) [Cpd. No. 505, 2-chloro-4-((3S)-8-(5-(4-(1-(2-(2,6-dioxopiperidin-3-yl)-6-fluoro-1,3-dioxoisoindolin-5-yl)azetidin-3-yl)piperazine-1-carbonyl)pyridin-2-yl)-3-methyl-2,8-diazaspiro[4.5]decan-2-yl)benzonitrile], the DC50 (read-out: VCaP DC50; VCaP cells, Table 6) was less than 1 nM.

For `C[C@H]1CC2(CCN(c3ccc(C(=O)N4CCN(C5CN(c6cc7c(cc6F)C(=O)N(C6CCC(=O)NC6=O)C7=O)C5)CC4)cn3)CC2)CN1c1ccc(C#N)c(Cl)c1` (stereo partly drawn) [Cpd. No. 506, 2-chloro-4-((3S)-8-(5-(4-(1-(2-(2,6-dioxopiperidin-3-yl)-6-fluoro-1,3-dioxoisoindolin-5-yl)azetidin-3-yl)piperazine-1-carbonyl)pyridin-2-yl)-3-methyl-2,8-diazaspiro[4.5]decan-2-yl)benzonitrile], the DC50 under setting [1] is less than 1 nM.

Take `C[C@H]1CC2(CCN(c3ccc(C(=O)N4CCN(C5CN(c6cc7c(cc6F)C(=O)N(C6CCC(=O)NC6=O)C7=O)C5)CC4)cn3)CC2)CN1c1ccc(C#N)c(Cl)c1` (stereo partly drawn) [Cpd. No. 507, 2-chloro-4-((3S)-8-(5-(4-(1-(2-(2,6-dioxopiperidin-3-yl)-6-fluoro-1,3-dioxoisoindolin-5-yl)azetidin-3-yl)piperazine-1-carbonyl)pyridin-2-yl)-3-methyl-2,8-diazaspiro[4.5]decan-2-yl)benzonitrile]: the DC50 under setting [1] fell in the range of 10 to 100 nM.

Take `C[C@H]1CC2(CCN(c3ccc(C(=O)N4CCN(C5CCN(c6ccc7c(c6)C(=O)N(C6CCC(=O)NC6=O)C7=O)CC5)CC4)cn3)CC2)CN1c1ccc(C#N)c(Cl)c1` (stereo partly drawn) [Cpd. No. 508, 2-chloro-4-((3S)-8-(5-(4-(1-(2-(2,6-dioxopiperidin-3-yl)-1,3-dioxoisoindolin-5-yl)piperidin-4-yl)piperazine-1-carbonyl)pyridin-2-yl)-3-methyl-2,8-diazaspiro[4.5]decan-2-yl)benzonitrile]: under setting [1], the DC50 is less than 1 nM.

For the compound `C[C@H]1CC2(CCN(c3ccc(C(=O)N4CCN(C5CCN(c6ccc7c(c6)C(=O)N(C6CCC(=O)NC6=O)C7=O)CC5)CC4)cn3)CC2)CN1c1ccc(C#N)c(Cl)c1` (stereo partly drawn) [Cpd. No. 509, 2-chloro-4-((3S)-8-(5-(4-(1-(2-(2,6-dioxopiperidin-3-yl)-1,3-dioxoisoindolin-5-yl)piperidin-4-yl)piperazine-1-carbonyl)pyridin-2-yl)-3-methyl-2,8-diazaspiro[4.5]decan-2-yl)benzonitrile], the DC50 under setting [1] was less than 1 nM.

For the compound `C[C@H]1CC2(CCN(c3ncc(C(=O)N4CCN(C5CN(c6ccc7c(c6)C(=O)N(C6CCC(=O)NC6=O)C7=O)C5)CC4)cn3)CC2)CN1c1ccc(C#N)c(Cl)c1` (stereo partly drawn) [Cpd. No. 512, 2-chloro-4-((3S)-8-(5-(4-(1-(2-(2,6-dioxopiperidin-3-yl)-1,3-dioxoisoindolin-5-yl)azetidin-3-yl)piperazine-1-carbonyl)pyrimidin-2-yl)-3-methyl-2,8-diazaspiro[4.5]decan-2-yl)benzonitrile], under setting [1], the DC50 was less than 1 nM.

With `C[C@H]1CC2(CCN(c3ncc(C(=O)N4CCN(C5CCN(c6ccc7c(c6)C(=O)N(C6CCC(=O)NC6=O)C7=O)CC5)CC4)cn3)CC2)CN1c1ccc(C#N)c(Cl)c1` (stereo partly drawn) [Cpd. No. 513, 2-chloro-4-((3S)-8-(5-(4-(1-(2-(2,6-dioxopiperidin-3-yl)-1,3-dioxoisoindolin-5-yl)piperidin-4-yl)piperazine-1-carbonyl)pyrimidin-2-yl)-3-methyl-2,8-diazaspiro[4.5]decan-2-yl)benzonitrile], the DC50 under setting [1] was less than 1 nM.

Turning to `C[C@H]1CC2(CCN(c3ncc(C(=O)N4CCC(N5CCN(c6ccc7c(c6)C(=O)N(C6CCC(=O)NC6=O)C7=O)CC5)CC4)cn3)CC2)CN1c1ccc(C#N)c(Cl)c1` (stereo partly drawn) [Cpd. No. 514, 2-chloro-4-((3S)-8-(5-(4-(4-(2-(2,6-dioxopiperidin-3-yl)-1,3-dioxoisoindolin-5-yl)piperazin-1-yl)piperidine-1-carbonyl)pyrimidin-2-yl)-3-methyl-2,8-diazaspiro[4.5]decan-2-yl)benzonitrile], the DC50 under setting [1] was less than 1 nM.

Turning to `C[C@H]1CC2(CCN(c3ccc(C(=O)N4CC[C@@H](N5CCN(c6cc7c(cc6F)C(=O)N(C6CCC(=O)NC6=O)C7=O)CC5)C4)cc3)CC2)CN1c1ccc(C#N)c(Cl)c1` (stereo partly drawn) [Cpd. No. 515, 2-chloro-4-((3S)-8-(4-((3R)-3-(4-(2-(2,6-dioxopiperidin-3-yl)-6-fluoro-1,3-dioxoisoindolin-5-yl)piperazin-1-yl)pyrrolidine-1-carbonyl)phenyl)-3-methyl-2,8-diazaspiro[4.5]decan-2-yl)benzonitrile], under setting [1], the DC50 was in the range of 10 to 100 nM.

As for `C[C@H]1CC2(CCN(c3ccc(C(=O)N4CC[C@H](N5CCN(c6ccc7c(c6)C(=O)N(C6CCC(=O)NC6=O)C7=O)CC5)C4)cc3)CC2)CN1c1ccc(C#N)c(Cl)c1` (stereo partly drawn) [Cpd. No. 516, 2-chloro-4-((3S)-8-(4-((3S)-3-(4-(2-(2,6-dioxopiperidin-3-yl)-1,3-dioxoisoindolin-5-yl)piperazin-1-yl)pyrrolidine-1-carbonyl)phenyl)-3-methyl-2,8-diazaspiro[4.5]decan-2-yl)benzonitrile], under setting [1], the DC50 lay in the range of 1 to 10 nM.

Regarding `C[C@H]1CC2(CCN(c3ccc(C(=O)N4CC[C@@H](N5CCN(c6cc7c(cc6F)C(=O)N(C6CCC(=O)NC6=O)C7=O)CC5)C4)cc3)CC2)CN1c1ccc(C#N)c(Cl)c1` (stereo partly drawn) [Cpd. No. 517, 2-chloro-4-((3S)-8-(4-((3R)-3-(4-(2-(2,6-dioxopiperidin-3-yl)-6-fluoro-1,3-dioxoisoindolin-5-yl)piperazin-1-yl)pyrrolidine-1-carbonyl)phenyl)-3-methyl-2,8-diazaspiro[4.5]decan-2-yl)benzonitrile], the DC50 under setting [1] fell in the range of 1 to 10 nM.

As for `C[C@H]1CC2(CCN(c3ccc(C(=O)N4CCN(C5CCN(c6ccc7c(c6)C(=O)N(C6CCC(=O)NC6=O)C7=O)CC5)CC4)cc3F)CC2)CN1c1ccc(C#N)c(Cl)c1` (stereo partly drawn) [Cpd. No. 518, 2-chloro-4-((3S)-8-(4-(4-(1-(2-(2,6-dioxopiperidin-3-yl)-1,3-dioxoisoindolin-5-yl)piperidin-4-yl)piperazine-1-carbonyl)-2-fluorophenyl)-3-methyl-2,8-diazaspiro[4.5]decan-2-yl)benzonitrile], the DC50 under setting [1] was in the range of 10 to 100 nM.

On to `C[C@H]1CC2(CCN(c3ccc(C(=O)N4CCN(C5CCN(c6ccc7c(c6)C(=O)N(C6CCC(=O)NC6=O)C7=O)CC5)CC4)cc3F)CC2)CN1c1ccc(C#N)c(Cl)c1` (stereo partly drawn) [Cpd. No. 519, 2-chloro-4-((3S)-8-(4-(4-(1-(2-(2,6-dioxopiperidin-3-yl)-1,3-dioxoisoindolin-5-yl)piperidin-4-yl)piperazine-1-carbonyl)-2-fluorophenyl)-3-methyl-2,8-diazaspiro[4.5]decan-2-yl)benzonitrile], for which the DC50 under setting [1] was less than 1 nM.
